Measured values taken from patent publication US7960378B2, “Therapeutic compounds” (Allergan, Inc., priority 2008, dated 2011).

Assays:
Type in all cases: in vivo
[1] = system: laser-induced hypertensive monkeys; assay: IOP in laser-induced hypertensive monkeys; conditions: versus baseline
normotensive dogs = assay: IOP in normotensive dogs; conditions: versus baseline
[2] = system: lashes and adjacent hairs of the eyelids; assay: Lash and adjacent hair changes in glaucoma patients treated in one eye; conditions: glaucoma patient treated in only one eye
Text: In the course of treating patients having glaucoma, treatment may only be appropriate in one eye. […] The lash appearance on the lids of the treated eyes would have appeared quite attractive if it represented a bilateral phenomenon. As a result of its asymmetric nature, the long lashes on one side could be construed as disturbing from a cosmetic standpoint. A systemic examination was preformed as a result of the asymmetric phenomenon. It soon became apparent that this altered appearance was not an isolated finding. […] Definite differences could be identified to varying degrees in the lashes and adjacent hairs of all patients who were taking the drug on a unilateral basis for longer than 6 months.
The changes in the lashes were apparent on gross inspection in several patients once attention was focused on the issue. In those with light colored hair and lashes, the differences were only seen easily with the aid of the high magnification and lighting capabilities of the slit lamp biomicroscope. In the course of glaucoma follow-up examination, attention is generally immediately focused on the eye itself. As a result of the high power magnification needed only one eye is seen at a time and the eye is seen at a high enough power that the lashes are not in focus. […]

SMILES	IOP [1]	intraocular pressure (IOP) (normotensive dogs)	lash appearance, treated eye versus non-treated eye [2]
N#C[C@@H]1C[C@@H](O)[C@H](CCCC(O)C2(c3cccs3)CCC2)[C@H]1CCCCCCC(=O)OCCO (stereo partly drawn) [Compound VIII]	decreases from baseline	decreases from baseline	
CCC1(C(O)CCC[C@@H]2[C@@H](CCCCCCC(=O)OCCO)[C@H](C#N)C[C@H]2O)CCC1 (stereo partly drawn) [Compound III]	decreases from baseline	decreases from baseline	
CCC1(C(O)C/C=C/[C@@H]2[C@@H](C/C=C\CCCC(=O)OCCN3CCOCC3)[C@H](C#N)C[C@H]2O)CCC1 (stereo partly drawn) [Compound IX]	decreases from baseline	decreases from baseline	
N#C[C@@H]1C[C@@H](O)[C@H](/C=C/CC(O)C2(c3cccs3)CCC2)[C@H]1CCCCCCC(=O)OCCO (stereo partly drawn) [Compound IV]	decreases from baseline	decreases from baseline	
CCC1(C(O)C/C=C/[C@@H]2[C@@H](CCCc3ccc(C(=O)OCCN4CCOCC4)s3)[C@H](C#N)C[C@H]2O)CCC1 (stereo partly drawn) [Compound XVI]	decreases from baseline	decreases from baseline	
CCC1(C(O)C/C=C/[C@@H]2[C@@H](CCCc3ccc(C(=O)OCCO)s3)[C@H](C#N)C[C@H]2O)CCC1 (stereo partly drawn) [Compound VII]	decreases from baseline	decreases from baseline	
CCC1(C(O)CCC[C@@H]2[C@@H](CCCc3ccc(C(=O)OCCN4CCOCC4)s3)[C@H](C#N)C[C@H]2O)CCC1 (stereo partly drawn) [Compound XIV]	decreases from baseline	decreases from baseline	
N#C[C@@H]1C[C@@H](O)[C@H](CCCC(O)C2(c3cccs3)CCC2)[C@H]1CCCCCCC(=O)OCCN1CCOCC1 (stereo partly drawn) [Compound XV]	decreases from baseline	decreases from baseline	
CCC1(C(O)C/C=C/[C@@H]2[C@@H](C/C=C\CCCC(=O)OCCO)[C@H](C#N)C[C@H]2O)CCC1 (stereo partly drawn) [Compound I]	decreases from baseline	decreases from baseline	
CCC1(C(O)CCC[C@@H]2[C@@H](CCCc3ccc(C(=O)OCCO)s3)[C@H](C#N)C[C@H]2O)CCC1 (stereo partly drawn) [Compound VI]	decreases from baseline	decreases from baseline	
N#C[C@@H]1C[C@@H](O)[C@H](/C=C/CC(O)C2(c3cccs3)CCC2)[C@H]1C/C=C\CCCC(=O)OCCN1CCOCC1 (stereo partly drawn) [Compound X]	decreases from baseline	decreases from baseline	
N#C[C@@H]1C[C@@H](O)[C@H](/C=C/CC(O)C2(Cc3ccc(Cl)s3)CCC2)[C@H]1C/C=C\CCCC(=O)OCCN1CCOCC1 (stereo partly drawn) [Compound XIII]	decreases from baseline	decreases from baseline	
N#C[C@@H]1C[C@@H](O)[C@H](/C=C/CC(O)C2(c3cccs3)CCC2)[C@H]1C/C=C\CCCC(=O)OCCO (stereo partly drawn) [Compound II]	decreases from baseline	decreases from baseline	
CCNC(=O)CCC/C=C\C[C@@H]1[C@@H](/C=C/[C@@H](O)CCc2ccccc2)[C@H](O)C[C@@H]1O [bimatoprost]			longer, thicker, and fuller in the treated eye than in the non-treated eye
N#C[C@@H]1C[C@@H](O)[C@H](/C=C/CC(O)C2(Cc3ccc(Cl)s3)CCC2)[C@H]1C/C=C\CCCC(=O)OCCO (stereo partly drawn) [Compound V]	decreases from baseline	decreases from baseline	
N#C[C@@H]1C[C@@H](O)[C@H](/C=C/CC(O)C2(c3cccs3)CCC2)[C@H]1CCCCCCC(=O)OCCN1CCOCC1 (stereo partly drawn) [Compound XII]	decreases from baseline	decreases from baseline	
CCC1(C(O)CCC[C@@H]2[C@@H](CCCCCCC(=O)OCCN3CCOCC3)[C@H](C#N)C[C@H]2O)CCC1 (stereo partly drawn) [Compound XI]	decreases from baseline	decreases from baseline	
